# Measurements from article PMC11847324, “A communication hub for phosphoregulation of kinetochore-microtubule attachment” (Current biology : CB, 2024).
# How the values were obtained:
# Ndc80c^dwarf [1] = assay: Fluorescence polarization competition, reporter Bodipy-FL Mps1(137–171); type: binding, S. cerevisiae
# Source text: We measured by fluorescence polarization the affinity of Ndc80^dwarf, a shortened version of Ndc80c[51], for a peptide comprising Mps1 residues 137–171, plus a C-terminal cysteine for labeling. We labeled the peptide with the Bodipy fluorophore and determined fluorescence anisotropy as a function of Ndc80c^dwarf concentration (Figure 3A). We then used unlabeled wild-type and mutant peptides in a competition format, at a fixed Ndc80c^dwarf concentration (Figures 3B,C). The mutant peptides corresponded to mutations characterized in one of the accompanying papers. […] Mutating either the basic residues or the hydrophobic residues in the first part of the consensus motif or the conserved arginine at the end of the second part lowered affinity (raised the Ki) by roughly two logs; mutating both the final arginine and the hydrophobic residues eliminated any detectable competition.
# (§1) Figure 3. Fluorescence polarization measurements of Ndc80c^dwarf binding peptides from the N-terminal extensions of Mps1 and Ipl1. (A) Polarization of fluorescence from 20 nM Bodipy-FL Mps1(137–171) (Mps1 residues 137–171 plus a C-terminal cysteine modified with Bodipy-FL -- see Methods) and Bodipy-FL Ipl1 (26–39;45–59) as a function of Ndc80c^dwarf concentration. (B) Competition binding experiment: unlabeled competitor peptides (see figure annotation) were added in twofold serial dilutions to Bodipy-FL Mps1(137–171) and Ndc80c^dwarf at final concentrations of 20 nM and 500 nM respectively. Loss of polarization indicates displacement of bound Bodipy-FL Mps1(137–171) by the competitor. (C) As in (B), with competitor Mps1(137–171) peptides containing mutations that reduce affinity for Ndc80c[40]. (D) Polarization of fluorescence from 20 nM Bodipy-FL Mps1(137–171) as a function of the concentration of Ndc80c^dwarf bearing mutations in Nuf2 that interfere with its Mps1 interaction in cells. (E) As in (B), but with 20 nM Bodipy-FL Ipl1 (26–39;45–59) as the fluorescent reporter and 27μM Ndc80c^dwarf. […] For the Ipl1 peptide, the second copy of the motif, not used for the fluorescence polarization experiments, is shown in the bottom line.
# Mps1 (137–171), Ipl1 (26–39;45–59), and Dam1 (254–270;290–305) peptides with added C-terminal cysteines, were synthesized by the Tufts University Core Facility. […] Fluorescence polarization was measured at 25°C with an Envision plate reader (Perkin Elmer) equipped with a filter set optimized for fluorescence polarization of FITC, which has the same absorption and emission spectra as those of Bodipy FL. […] Fluorescence polarization was measured in triplicate. […] An equal volume of a buffer-matched solution containing 40 nM Bodipy-FL labelled peptide and 1 μM Ndc80c^dwarf was added to each of the dilutions, and fluorescence polarization was measured in triplicate. […]
# Ndc80c^dwarf [2] = assay: Fluorescence polarization competition, reporter Bodipy-FL Ipl1 (26–39;45–59); type: binding, S. cerevisiae; details: 20 nM Bodipy-FL Ipl1 (26–39;45–59), 27μM Ndc80c^dwarf; competitor in twofold serial dilutions; 25°C; Figure 3E
# Method: as §1, with “(B) Competition binding experiment: unlabeled competitor peptides (see figure annotation) were added in twofold serial dilutions to Bodipy-FL Mps1(137–171) and Ndc80c^dwarf at final concentrations of 20 nM and 500 nM respectively.” left out, “cells.” for “cells. (E) As in (B), but with 20 nM Bodipy-FL Ipl1 (26–39;45–59) as the fluorescent reporter and 27μM Ndc80c^dwarf.”
# We measured the Ipl1 peptide affinity, both directly (Figure 3A) and by measuring displacement of a fluorophore-labeled Mps1 peptide (Figure 3B) as a function of increasing concentrations of unlabeled Ipl1 peptide. […]
# Mps1 (137–171), Ipl1 (26–39;45–59), and Dam1 (254–270;290–305) peptides with added C-terminal cysteines, were synthesized by the Tufts University Core Facility. […] Fluorescence polarization was measured in triplicate. […]
# Ndc80c^dwarf, sequence (P33895 1-150): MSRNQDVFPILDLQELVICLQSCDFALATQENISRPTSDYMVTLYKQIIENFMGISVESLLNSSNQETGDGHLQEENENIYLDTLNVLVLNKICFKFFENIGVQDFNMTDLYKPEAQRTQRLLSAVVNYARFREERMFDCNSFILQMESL
# Ndc80c^dwarf, sequence (P40460 115-310, further chain): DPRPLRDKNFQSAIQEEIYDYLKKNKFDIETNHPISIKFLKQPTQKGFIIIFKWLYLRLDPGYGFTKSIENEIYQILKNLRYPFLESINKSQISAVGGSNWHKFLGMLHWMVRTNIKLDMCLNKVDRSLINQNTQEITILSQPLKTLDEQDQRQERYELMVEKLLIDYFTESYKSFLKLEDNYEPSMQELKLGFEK
sequence,measurement,setting,value
"RQNMKEDITAKYAERRSKRFLISNRTTKLGPAKRAC [Mps1 (137–171), peptide comprising Mps1 residues 137–171, plus a C-terminal cysteine for labeling]",displacement of bound Bodipy-FL Mps1(137–171) by unlabeled competitor peptide,"Ndc80c^dwarf [1]; 20 nM Bodipy-FL Mps1(137–171), 500 nM Ndc80c^dwarf, competitor in twofold serial dilutions, 20 mM Tris pH 7.2, 100 mM NaCl, 2 mM TCEP, 25°C, triplicate, Figures 3B,C","displaced the fluorescent Mps1 peptide, at a concentration consistent with the affinity measured by direct titration"
same,relative affinity of peptides for Ndc80c^dwarf (comparison in words),Ndc80c^dwarf [1]; direct titration (Figure 3A) and competition with Bodipy-FL Mps1(137–171) (Figure 3B),nearly the same
same,displacement of Bodipy-FL Ipl1 (26–39;45–59) by unlabeled competitor peptide,Ndc80c^dwarf [2],competed strongly
